Results published in ChEMBL document CHEMBL3861984, “Synthesis and evaluation of 2,5 and 2,6 pyridine-based CXCR4 inhibitors” (Bioorg Med Chem, 2016).
The source made the active and inactive calls. The rule behind the calls is not given here.

Columns and labels:
[1] = target: T1, C-X-C chemokine receptor type 4 (Homo sapiens, UniProt P61073); experiment: Displacement of biotinylated-TN14003 from CXCR4 in human MDA-MB-231 cells assessed as reduction in fluorescence preincubated for 10 mins followed by biotinylated-TN14003 addition measured after 30 mins by streptavidin-rhodamine staining based microscopic analysis; assay type: cell-based
T1 sequence (P61073 whole entry): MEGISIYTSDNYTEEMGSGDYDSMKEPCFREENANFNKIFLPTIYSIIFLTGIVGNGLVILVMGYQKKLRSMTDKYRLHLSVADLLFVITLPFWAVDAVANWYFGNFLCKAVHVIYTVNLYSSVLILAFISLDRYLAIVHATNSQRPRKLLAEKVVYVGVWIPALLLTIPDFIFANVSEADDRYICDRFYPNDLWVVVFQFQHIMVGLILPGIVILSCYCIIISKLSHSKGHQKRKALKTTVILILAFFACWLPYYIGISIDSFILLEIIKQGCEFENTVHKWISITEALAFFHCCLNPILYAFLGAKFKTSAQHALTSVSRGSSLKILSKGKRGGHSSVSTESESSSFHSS

Mus musculus [2] = experiment: Toxicity in carrageenan-induced paw edema C57BL/6J mouse model assessed as mortality at 10 mg/kg administered 30 mins after carrageenan challenge and then once daily following initial dose measured 74 hrs post inflammation induction and 2 hrs post last dose; assay type: organism-based; conditions: in vivo
Mus musculus [3] = experiment: Anti-inflammatory activity in C57BL/6J mouse assessed as suppression of carrageenan-induced paw edema at 10 mg/kg administered 30 mins after carrageenan challenge and then once daily following initial dose measured 74 hrs post inflammation induction and 2 hrs post last dose relative to control; assay type: functional
[4] = target: T1, C-X-C chemokine receptor type 4; experiment: Inhibition of CXCR4/CXCL12 interaction-mediated chemotaxis in human MDA-MB-231 cells assessed as inhibition of cell invasion at 100 nM after 22 hrs by hematoxylin/eosin dye-based matrigel assay relative to control
Mus musculus [5] = experiment: Antiinflammatory activity in C57BL/6J mouse paw assessed as reduction in carrageenan-induced paw edema volume at 10 mg/kg administered 30 mins after carrageenan challenge and then once daily following initial dose measured 74 hrs post inflammation induction and 2 hrs post last dose by hematoxylin and eosin-staining based assay; assay type: functional, organism-based

Row | Compound | EC [1] [nM] | Activity (Mus musculus [2]) | inhibition in vivo at 10 mg/kg (Mus musculus [3]) [%] | inhibition [4] [%] | IC50 [1] [µM] | Activity (Mus musculus [5])
1 | O=[N+]([O-])c1ccc(NCc2cccc(CNc3ccc([N+](=O)[O-])cc3)n2)cc1 | > 1000 |  |  |  |  | 
2 | CCc1ccccc1NCc1cccc(CNc2ccccc2CC)n1 | 1 | Non-Toxic | 18.1 | 59 |  | 
3 | FC(F)(F)c1cccc(NCc2cccc(CNc3cccc(C(F)(F)F)c3)n2)c1 | 1000 |  |  | 15 |  | 
4 | COc1cccc(NCc2cccc(CNc3cccc(OC)c3)n2)c1 | 100 | Non-Toxic | 20.1 | 37 |  | 
5 | Clc1cccc(CNc2ccc(NCc3cccc(Cl)c3)nc2)c1 | 1000 |  |  |  |  | 
6 | Fc1ccc(CNc2ccc(NCc3ccc(F)cc3)nc2)cc1 | > 1000 |  |  |  |  | 
7 | Clc1cccc(NCc2cccc(CNc3cccc(Cl)c3)n2)c1 | 100 |  |  | 34 |  | 
8 | Fc1cccc(NCc2ccc(CNc3cccc(F)c3)nc2)c1 | 1000 |  |  |  |  | 
9 | COc1ccccc1NCc1cccc(CNc2ccccc2OC)n1 | 1000 |  |  | 0 |  | 
10 | COc1ccc(CNc2ccc(NCc3ccc(OC)cc3)nc2)cc1 | 1000 |  |  |  |  | 
11 | FC(F)(F)c1ccccc1NCc1cccc(CNc2ccccc2C(F)(F)F)n1 | > 1000 |  |  |  |  | 
12 | COc1ccc(NCc2cccc(CNc3ccc(OC)cc3)n2)cc1 | 100 |  |  | 5 |  | 
13 | Fc1ccc(NCc2cccc(CNc3ccc(F)cc3)n2)cc1 | 100 |  |  | 5 |  | 
14 | Cc1cccc(NCc2ccc(CNc3cccc(C)c3)nc2)c1 | 1 | Non-Toxic |  | 58 |  | 
15 | CCc1ccc(NCc2cccc(CNc3ccc(CC)cc3)n2)cc1 | 1 | Non-Toxic | 42 | 64 | 0.0196 | 
16 | O=[N+]([O-])c1cccc(NCc2cccc(CNc3cccc([N+](=O)[O-])c3)n2)c1 | > 1000 |  |  |  |  | 
17 | c1ccc(NCc2cccc(CNc3ccccc3)n2)cc1 | 100 |  |  | < 1 |  | 
18 | COc1ccccc1NCc1ccc(CNc2ccccc2OC)nc1 | 100 |  |  | < 5 |  | 
19 | Cc1cccc(NCc2cccc(CNc3cccc(C)c3)n2)c1 | 100 | Non-Toxic | 20.2 | 60 |  | 
20 | Cc1ccc(NCc2cccc(CNc3ccc(C)cc3)n2)cc1 | 1000 |  |  |  |  | 
21 | CSc1ccc(NCc2cccc(CNc3ccc(SC)cc3)n2)cc1 | > 1000 |  |  |  |  | 
22 | Clc1ccccc1NCc1cccc(CNc2ccccc2Cl)n1 | > 1000 |  |  |  |  | 
23 | Cc1ccccc1NCc1cccc(CNc2ccccc2C)n1 | > 1000 |  |  |  |  | 
24 | CCOc1ccc(CNc2ccc(NCc3ccc(OCC)cc3)nc2)cc1 | 100 | Non-Toxic |  | 60 |  | 
25 | FC(F)(F)c1ccc(NCc2cccc(CNc3ccc(C(F)(F)F)cc3)n2)cc1 | 1 | Non-Toxic | 20.3 | 52 |  | 
26 | c1cc(CN2CCOCC2)nc(CN2CCOCC2)c1 | 10 | Non-Toxic | 39.1 | 63 | 0.0357 | 
27 | Fc1ccccc1NCc1cccc(CNc2ccccc2F)n1 | 1000 |  |  |  |  | 
28 | Fc1cccc(NCc2cccc(CNc3cccc(F)c3)n2)c1 | 10 | Non-Toxic | 20.3 | 50 |  | Active
29 | CCc1cccc(NCc2cccc(CNc3cccc(CC)c3)n2)c1 | 1000 |  |  |  |  | 
30 | Clc1ccc(NCc2cccc(CNc3ccc(Cl)cc3)n2)cc1 | 100 |  |  | 21 |  | 
